We go through ten compounds from patent US4022791A (priority 1975, dated 1977).

The subject of one experiment is Rats. Details: Rat Jump .5 hr (current at which the animal first jumps) / Rat Jump .5 hr, second value printed in parentheses / Rat Jump 2 hr (current at which the animal first jumps): unit not given here. The settings on record: in vivo; for Rat Jump 2 hr (current at which the animal first jumps) / Rat Jump .5 hr (current at which the animal first jumps): ip.
In experiment [1] the test system is mice. To be noted: mouse, in vivo; for Hot Plate 2 hr (percentage of mice showing analgesia) / Hot Plate .5 hr (percentage of mice showing analgesia): ip.
The test system of experiment [2] is mice. The settings on record: mouse, in vivo; for Tail Flick 2 hr (percentage of analgesia response) / Tail Flick .5 hr (percentage of analgesia response): ip.
Experiment [3] relates to mice. The experiment is described as follows: animal or person. Type of experiment: in vivo, mouse. The settings on record: mouse, in vivo, ip.

Some results are limits rather than exact numbers.
Throughout, for Hot Plate .5 hr (percentage of mice showing analgesia): test concentration or dose not given here.
Throughout, for Hot Plate 2 hr (percentage of mice showing analgesia): test concentration or dose not given here.
Throughout, for Tail Flick .5 hr (percentage of analgesia response): test concentration or dose not given here.
Throughout, for Tail Flick 2 hr (percentage of analgesia response): test concentration or dose not given here.
Throughout, for Tail Pinch .5 hr (percentage of mice showing analgesia): test concentration or dose not given here.
Throughout, for Tail Pinch 2 hr (percentage of mice showing analgesia): test concentration or dose not given here.

Turning to `COc1ccc(N2CCN(CC3=Cc4c(Cl)ccc(OC)c4CC3)CC2)cc1`, in the experiment on Rats, the “Rat Jump 2 hr (current at which the animal first jumps)” value (“Rat Jump 2 hr” below) worked out at 1.2 and the “Rat Jump .5 hr (current at which the animal first jumps)” value (from here on “Rat Jump .5 hr”) is given as 1.2. In the experiment on mice [1], the “Hot Plate 2 hr (percentage of mice showing analgesia)” value amounted to 0 and the “Hot Plate .5 hr (percentage of mice showing analgesia)” value is 0. Moreover, in the experiment with mice [2], the “Tail Flick 2 hr (percentage of analgesia response)” value was found to be 0 and the “Tail Flick .5 hr (percentage of analgesia response)” value came out at 0. Further, in the experiment with mice [3], the “Tail Pinch 2 hr (percentage of mice showing analgesia)” value is recorded as 0 and the “Tail Pinch .5 hr (percentage of mice showing analgesia)” value is 0.

Turning to `COc1ccc(Cl)c2c1CCC(CN1CCC(O)CC1)=C2`, in the experiment on Rats, the “Rat Jump 2 hr” value is recorded as 1.2 and the “Rat Jump .5 hr” value worked out at 1.2. In the experiment on mice [1], the “Hot Plate 2 hr (percentage of mice showing analgesia)” value worked out at 0 and the “Hot Plate .5 hr (percentage of mice showing analgesia)” value was 0. Also, in the experiment with mice [2], the “Tail Flick 2 hr (percentage of analgesia response)” value turned out to be 0 and the “Tail Flick .5 hr (percentage of analgesia response)” value is listed as 0. In the experiment with mice [3], the “Tail Pinch 2 hr (percentage of mice showing analgesia)” value is recorded as 0 and the “Tail Pinch .5 hr (percentage of mice showing analgesia)” value is reported as 0.

Take `COc1ccc(Cl)c2c1CCC(CN1CCN(c3ccc(Cl)cc3)CC1)=C2`: in the experiment on Rats, the “Rat Jump 2 hr” value turned out to be 1.2 and the “Rat Jump .5 hr” value is recorded as 1.2. Besides, in the experiment with mice [1], the “Hot Plate 2 hr (percentage of mice showing analgesia)” value is 0 and the “Hot Plate .5 hr (percentage of mice showing analgesia)” value was determined as 10. Besides, in the experiment on mice [2], the “Tail Flick 2 hr (percentage of analgesia response)” value was 0 and the “Tail Flick .5 hr (percentage of analgesia response)” value stood at 0. Further, in the experiment with mice [3], the “Tail Pinch 2 hr (percentage of mice showing analgesia)” value was determined as 0 and the “Tail Pinch .5 hr (percentage of mice showing analgesia)” value is on record as 0.

`COc1ccc(Cl)c2c1CCC(CN1CCSC1)=C2`: in the experiment with Rats, the “Rat Jump 2 hr” value is given as 1.2 and the “Rat Jump .5 hr” value is 1.2. In the experiment on mice [1], the “Hot Plate 2 hr (percentage of mice showing analgesia)” value was found to be 0 and the “Hot Plate .5 hr (percentage of mice showing analgesia)” value worked out at 0. Also, in the experiment on mice [2], the “Tail Flick 2 hr (percentage of analgesia response)” value turned out to be 0 and the “Tail Flick .5 hr (percentage of analgesia response)” value was found to be 0. In the experiment with mice [3], the “Tail Pinch 2 hr (percentage of mice showing analgesia)” value was 0 and the “Tail Pinch .5 hr (percentage of mice showing analgesia)” value is given as 0.

Turning to `COc1ccc(Cl)c2c1CCC(CN1CCC(C(=O)N(C)C)CC1)=C2`, in the experiment with Rats, the “Rat Jump 2 hr” value is recorded as 1.2 and the “Rat Jump .5 hr” value is 1.2.

Consider `COc1ccc(Cl)c2c1CCC(CN1CCC(C(=O)N3CCOCC3)CC1)=C2`, for which, in the experiment with Rats, the “Rat Jump 2 hr” value was determined as 1.2 and the “Rat Jump .5 hr” value was found to be 1.2.

`COc1ccc(Cl)c2c1CCC(CN1CCCC(C(N)=O)C1)=C2` (stereo not shown): in the experiment with Rats, the “Rat Jump 2 hr” value is reported as 2.2 and the “Rat Jump .5 hr” value came out at 1.6. In the experiment with mice [1], the “Hot Plate 2 hr (percentage of mice showing analgesia)” value is listed as 0 and the “Hot Plate .5 hr (percentage of mice showing analgesia)” value is recorded as 0. For the same compound, in the experiment on mice [2], the “Tail Flick 2 hr (percentage of analgesia response)” value came to 0 and the “Tail Flick .5 hr (percentage of analgesia response)” value was determined as 0. Further, in the experiment with mice [3], the “Tail Pinch 2 hr (percentage of mice showing analgesia)” value stood at 0 and the “Tail Pinch .5 hr (percentage of mice showing analgesia)” value is given as 0.

Consider `CN1CC[C@]23c4c5ccc(O)c4O[C@H]2[C@@H](O)C=C[C@H]3[C@H]1C5.O=S(=O)(O)O` [Morphine Sulfate, reference compound], for which, in the experiment with Rats, the “Rat Jump .5 hr” value is more than 2.2. In the experiment on mice [2], the “Tail Flick 2 hr (percentage of analgesia response)” value was determined as 100 and the “Tail Flick .5 hr (percentage of analgesia response)” value stood at 100.

As to `COc1ccc(Cl)c2c1CCC(CN1CCC(C(N)=O)(N3CCCCC3)CC1)=C2`, in the experiment on Rats, the “Rat Jump 2 hr” value came out at 1.6 and the “Rat Jump .5 hr” value is 1.2.

For `COc1ccc(Cl)c2c1CCC(CN1CCCC1)=C2C` [reference compound], the “activity in the Rat Jump Test” value in the experiment with Rats was “inactive”. Besides, the “activity in the Hot Plate test” value with mice [1] is “marginal activity”. The “activity in the Tail Flick test” value in the experiment with mice [2] is reported as “marginal activity”.
